Experimental data taken from patent US20090196917A1, “Liposomal Formulations of Hydrophobic Lactone Drugs in the Presence of Metal Ions” (University of Kentucky Research Foundation, priority 2008, published 2009).
Values joined by “and” are separate entries in the source; they are usually repeats but may differ in a detail not shown here. Identical values can stand only once.

What was measured:
[1] = after 24 hrs, novel approach (active loading)
[2] = pH 7.4
[3] = after intravenous administration, animal data; cited from earlier work
[4] = Active loading of DB-67 into Ca(OAc)2 DSPC/m-PEG DSPE vesicles (Example 15); conditions: end of loading
[5] = Active loading of DB-67 into liposomes, calcium acetate gradient (Example 14); conditions: liposomes made by active loading procedure, pH and calcium ion gradient, 40° C.

- retained drug [1]: approximately 50%
- half-life for release (liposome retention) [2]: 22 ± 6 h
- intravesicular DB-67 concentration [4]: ~21 mM and ~10 mg/mL
- suspension drug concentration (all drug being entrapped) [5]: ≤ 3 mM
Compound: CC[C@@]1(O)C(=O)OCc2c1cc1n(c2=O)Cc2c-1nc1ccc(O)cc1c2[Si](C)(C)C(C)(C)C [DB-67, silatecan 7-t-butyldimethylsilyl-10-hydroxycamptothecin]
- lactone to total AUC [3]: > 90%
